8 compounds from ChEMBL document CHEMBL1138482 (J Med Chem, 2009) can be followed below.

Bounds are passed on as bounds.

Test [1] concerns the target Folate receptor alpha (Homo sapiens) (UniProt P15328). The experiment in a line: Displacement of [3H]folic acid from human folate receptor alpha in chinese hamster RT16 cells assessed as relative binding affinity relative to folic acid. It is filed as cell-based. For orientation: Loss of bound radioactivity is the signal in a displacement assay; it reports binding, not function.

For test [2], the system named is KB. Kind of test: Antiproliferative activity against human KB cells expressing human reduced folate carrier/folate receptor alpha after 96 hrs by celltiter-blue cell viability assay. Background: The colour change of resazurin is a common sign of viable cells or microbes.
The nature of test [3]: Antiproliferative activity against chinese hamster D4 cells expressing human folate receptor beta after 96 hrs by celltiter-blue cell viability assay. The conditions noted are these: Cricetulus griseus, D4, 96 h.
Test [4] has as its system KB. Kind of test: Antiproliferative activity against human KB cells expressing human reduced folate carrier/folate receptor alpha after 96 hrs by celltiter-blue cell viability assay in presence of folic acid.
Test [5] can be described thus: Antiproliferative activity against chinese hamster PC43-10 cells expressing human reduced folate carrier after 96 hrs by celltiter-blue cell viability assay. The conditions noted are these: Cricetulus griseus, PC43-10, 96 h.
A short description of test [6]: Antiproliferative activity against chinese hamster D4 cells expressing human folate receptor beta after 96 hrs by celltiter-blue cell viability assay in presence of folic acid. Conditions: Cricetulus griseus, D4, 96 h.
Test [7] deals with Folate receptor beta (Homo sapiens) (UniProt P14207). Kind of test: Displacement of [3H]folic acid from human folate receptor beta in chinese hamster D4 cells assessed as relative binding affinity relative to folic acid. The test is classed as cell-based.
Folate receptor beta (Homo sapiens), sequence (P14207 17-230 limits assumed): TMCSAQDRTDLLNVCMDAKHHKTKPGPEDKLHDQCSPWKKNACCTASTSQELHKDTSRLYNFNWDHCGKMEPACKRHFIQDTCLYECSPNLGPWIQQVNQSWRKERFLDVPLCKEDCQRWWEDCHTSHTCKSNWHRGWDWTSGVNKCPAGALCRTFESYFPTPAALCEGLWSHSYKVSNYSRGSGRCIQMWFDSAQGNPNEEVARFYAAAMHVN
For test [8], the system named is IGROV-1. Kind of test: Antiproliferative activity against human IGROV1 cells expressing human reduced folate carrier/folate receptor alpha after 96 hrs by celltiter-blue cell viability assay. The conditions noted are these: IGROV-1, 96 h.
Test [9] can be described thus: Antiproliferative activity against chinese hamster MTXRII-OuaR2-4 cells expressing empty pCDNA3.1 after 96 hrs by celltiter-blue cell viability assay. The conditions noted are these: Cricetulus griseus.
For test [10], the system named is IGROV-1. The experiment in a line: Antiproliferative activity against human IGROV1 cells expressing human reduced folate carrier/folate receptor alpha after 96 hrs by celltiter-blue cell viability assay in presence of folic acid. Conditions: IGROV-1, 96 h.
Test [11] in a line: Antiproliferative activity against chinese hamster RT16 cells expressing human folate receptor alpha after 96 hrs by celltiter-blue cell viability assay in presence of folic acid. The conditions noted are these: Cricetulus griseus, RT16, 96 h.
Test [12] in a line: Antiproliferative activity against chinese hamster MTXRII-OuaR2-4 cells expressing human proton-coupled folate transporter after 96 hrs by celltiter-blue cell viability assay. The conditions noted are these: Cricetulus griseus.
Test [13] is described as follows: Antiproliferative activity against chinese hamster RT16 cells expressing human folate receptor alpha after 96 hrs by celltiter-blue cell viability assay. The conditions noted are these: Cricetulus griseus, RT16, 96 h.
Test [14] in a line: Antiproliferative activity against chinese hamster MTXRII-OuaR2-4 cells expressing human reduced folate carrier after 96 hrs by celltiter-blue cell viability assay. The conditions noted are these: Cricetulus griseus.
Test [15] has as its target T1, Trifunctional purine biosynthetic protein adenosine-3 (Homo sapiens, UniProt P22102).
T1 sequence (P22102 whole entry): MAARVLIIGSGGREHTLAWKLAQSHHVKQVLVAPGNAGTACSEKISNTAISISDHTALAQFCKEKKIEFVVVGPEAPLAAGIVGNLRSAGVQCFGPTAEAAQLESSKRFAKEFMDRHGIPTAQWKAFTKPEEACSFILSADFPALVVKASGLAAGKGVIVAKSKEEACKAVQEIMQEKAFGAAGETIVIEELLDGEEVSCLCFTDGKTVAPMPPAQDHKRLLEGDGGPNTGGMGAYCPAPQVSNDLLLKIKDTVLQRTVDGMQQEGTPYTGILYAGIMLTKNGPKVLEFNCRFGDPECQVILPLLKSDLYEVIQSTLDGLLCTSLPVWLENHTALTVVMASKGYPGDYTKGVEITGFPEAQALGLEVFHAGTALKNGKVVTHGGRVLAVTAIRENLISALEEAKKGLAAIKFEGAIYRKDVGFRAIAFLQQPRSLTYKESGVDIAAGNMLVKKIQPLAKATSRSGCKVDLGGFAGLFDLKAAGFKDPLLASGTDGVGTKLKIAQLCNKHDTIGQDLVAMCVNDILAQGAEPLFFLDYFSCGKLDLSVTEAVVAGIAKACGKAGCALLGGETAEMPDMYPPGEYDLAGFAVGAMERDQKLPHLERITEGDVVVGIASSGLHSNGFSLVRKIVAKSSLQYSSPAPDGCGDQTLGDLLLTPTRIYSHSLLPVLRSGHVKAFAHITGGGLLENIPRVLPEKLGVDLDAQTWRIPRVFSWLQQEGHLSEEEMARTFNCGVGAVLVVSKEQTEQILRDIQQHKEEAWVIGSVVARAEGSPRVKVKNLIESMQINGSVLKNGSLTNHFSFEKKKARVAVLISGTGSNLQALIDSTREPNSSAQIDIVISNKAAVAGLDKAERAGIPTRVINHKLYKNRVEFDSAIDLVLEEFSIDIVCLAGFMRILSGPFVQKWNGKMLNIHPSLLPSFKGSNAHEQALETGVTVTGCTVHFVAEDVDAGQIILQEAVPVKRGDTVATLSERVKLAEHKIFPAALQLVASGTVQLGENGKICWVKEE
Kind of test: Inhibition of GARFTase in human KB cells assessed as inhibition of incorporation of [14C]glycine into [14C]formyl GAR after 30 mins in presence of azaserine.

Test [16] concerns the target T2, Trifunctional purine biosynthetic protein adenosine-3 (Mus musculus, UniProt Q64737).
T2 sequence (Q64737 whole entry): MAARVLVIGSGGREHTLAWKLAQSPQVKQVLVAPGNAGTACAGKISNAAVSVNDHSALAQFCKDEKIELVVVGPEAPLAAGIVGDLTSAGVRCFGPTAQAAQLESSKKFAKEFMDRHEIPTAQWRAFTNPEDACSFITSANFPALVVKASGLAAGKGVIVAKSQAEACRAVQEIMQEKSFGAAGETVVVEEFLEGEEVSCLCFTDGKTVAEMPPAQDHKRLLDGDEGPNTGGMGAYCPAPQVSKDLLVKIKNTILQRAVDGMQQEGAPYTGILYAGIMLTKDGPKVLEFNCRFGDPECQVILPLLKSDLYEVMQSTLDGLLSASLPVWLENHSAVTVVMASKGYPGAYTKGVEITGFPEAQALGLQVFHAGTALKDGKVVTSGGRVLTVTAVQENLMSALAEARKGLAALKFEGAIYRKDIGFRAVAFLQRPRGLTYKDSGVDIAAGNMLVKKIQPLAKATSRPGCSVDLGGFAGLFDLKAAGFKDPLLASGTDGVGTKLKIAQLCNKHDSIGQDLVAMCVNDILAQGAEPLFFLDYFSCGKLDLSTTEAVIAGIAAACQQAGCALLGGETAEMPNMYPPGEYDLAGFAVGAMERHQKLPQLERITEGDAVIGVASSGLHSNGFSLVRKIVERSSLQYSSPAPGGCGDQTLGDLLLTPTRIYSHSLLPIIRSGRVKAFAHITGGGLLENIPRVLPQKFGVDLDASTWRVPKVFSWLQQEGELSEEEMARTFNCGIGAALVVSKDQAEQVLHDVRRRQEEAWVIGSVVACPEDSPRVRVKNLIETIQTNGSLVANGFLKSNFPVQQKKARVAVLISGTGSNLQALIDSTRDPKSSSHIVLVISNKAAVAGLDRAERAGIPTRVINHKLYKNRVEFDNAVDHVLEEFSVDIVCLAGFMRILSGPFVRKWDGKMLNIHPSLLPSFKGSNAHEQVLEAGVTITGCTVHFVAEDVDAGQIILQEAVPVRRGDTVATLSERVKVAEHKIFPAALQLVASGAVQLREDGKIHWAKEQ
Kind of test: Inhibition of mouse recombinant GARFTase.

Broadly, the IC50 is the point on the concentration scale where inhibition reaches its midpoint.

Folate receptor alpha (Homo sapiens), sequence (P15328 25-234 limits assumed): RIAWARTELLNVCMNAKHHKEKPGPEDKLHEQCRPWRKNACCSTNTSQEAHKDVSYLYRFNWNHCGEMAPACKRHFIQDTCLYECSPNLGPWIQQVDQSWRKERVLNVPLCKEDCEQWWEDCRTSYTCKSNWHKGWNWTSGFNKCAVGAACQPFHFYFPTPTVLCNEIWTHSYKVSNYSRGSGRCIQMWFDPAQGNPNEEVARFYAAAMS

Turning to `CN(Cc1cnc2nc(N)nc(N)c2n1)c1ccc(C(=O)N[C@@H](CCC(=O)O)C(=O)O)cc1`, the relative binding affinity (RBA) in [1] came out at 0.8.

Turning to `Nc1nc2sc(CCCCCCCCc3ccc(C(=O)N[C@@H](CCC(=O)O)C(=O)O)cc3)cc2c(=O)[nH]1`, the IC50 (with KB [2]; in test [3]; with KB [4]; in [5]; in [6]; in the test with IGROV-1 [8]) was greater than 1000 nM in each case. Also, the IC50 (in test [9]; in the test with IGROV-1 [10]; in [11]; in test [12]; in [13]; in test [14]) was greater than 1000 nM throughout. Also, the relative binding affinity (RBA) in [1] and in test [7] was greater than 0.8 in each case.

Consider `Nc1nc2sc(CCCCCCc3ccc(C(=O)N[C@@H](CCC(=O)O)C(=O)O)cc3)cc2c(=O)[nH]1`, for which the IC50 in [3] was 364 nM; in the test on KB [4] it was greater than 1000 nM; in test [5], greater than 1000 nM; in [6] it was greater than 1000 nM; with IGROV-1 [8], 334 nM; in [9], greater than 1000 nM. Besides, the half-maximal inhibitory concentration (IC50) in the test on IGROV-1 [10] is greater than 1000 nM; in test [15], 26.6 nM; in [11], greater than 1000 nM; in [12] it was greater than 1000 nM; in test [13] it was 108 nM; in test [14] it was greater than 1000 nM. In addition, the relative binding affinity (RBA) in test [1] and in test [7] was greater than 0.8 each time.

`Nc1nc2sc(CCCCCCCc3ccc(C(=O)N[C@@H](CCC(=O)O)C(=O)O)cc3)cc2c(=O)[nH]1`: the IC50 (with KB [2]; in test [3]; in the test with KB [4]; in [5]; in test [6]; in the test with IGROV-1 [8]) was greater than 1000 nM throughout. The IC50 (in test [9]; with IGROV-1 [10]; in test [11]; in test [12]; in test [13]; in [14]) was greater than 1000 nM each time. Moreover, the relative binding affinity (RBA) in test [1] and in test [7] was greater than 0.8 throughout.

In the case of `Nc1nc2sc(CCc3ccc(C(=O)N[C@@H](CCC(=O)O)C(=O)O)cc3)cc2c(=O)[nH]1`, the IC50 was greater than 1000 nM in the test on KB [2]; greater than 1000 nM in test [3]; greater than 1000 nM with KB [4]; greater than 1000 nM in [5]; greater than 20000 nM in test [16]; greater than 1000 nM in test [6]. For the same compound, the concentration for half-maximal inhibition (IC50) with IGROV-1 [8] was greater than 1000 nM; in [9], greater than 1000 nM; in the test on IGROV-1 [10] it was greater than 1000 nM; in test [15], 32.3 nM; in test [11] it was greater than 1000 nM; in test [12], greater than 1000 nM. Besides, the IC50 in [13] and in test [14] was greater than 1000 nM in each case. Moreover, the relative binding affinity (RBA) in [1] was 0.25; in [7] it was less than 0.01.

Regarding `Nc1nc2sc(CCCc3ccc(C(=O)N[C@@H](CCC(=O)O)C(=O)O)cc3)cc2c(=O)[nH]1`, the IC50 is 112 nM in [3]; greater than 1000 nM in the test with KB [4]; greater than 1000 nM in [5]; 8520 nM in test [16]; greater than 1000 nM in test [6]; greater than 1000 nM in [9]. The IC50 (with IGROV-1 [10]; in test [11]; in test [12]; in test [14]) was greater than 1000 nM each time. The relative binding affinity (RBA) in test [1] and in test [7] was greater than 0.8 throughout.

For the compound `Nc1nc2sc(CCCCc3ccc(C(=O)N[C@@H](CCC(=O)O)C(=O)O)cc3)cc2c(=O)[nH]1`, the relative binding affinity (RBA) in test [1] and in [7] was greater than 0.8 each time. For the same compound, the IC50 (in the test with KB [4]; in test [5]; in test [6]; in test [9]; with IGROV-1 [10]; in test [11]) was greater than 1000 nM throughout. In addition, the IC50 in test [12] and in test [14] was greater than 1000 nM throughout.

On to `Nc1nc2sc(CCCCCc3ccc(C(=O)N[C@@H](CCC(=O)O)C(=O)O)cc3)cc2c(=O)[nH]1`, for which the IC50 in the test on KB [2] was 132 nM; in the test on KB [4], greater than 1000 nM; in test [5] it was greater than 1000 nM; in [6], greater than 1000 nM; in [9], greater than 1000 nM; in the test on IGROV-1 [10], greater than 1000 nM. Also, the half-inhibitory concentration (IC50) in test [15] is 23.6 nM; in test [11], greater than 1000 nM; in test [12], greater than 1000 nM; in test [14] it was greater than 1000 nM. The relative binding affinity (RBA) in [1] and in [7] was greater than 0.8 in each case.
